These results are taken from ChEMBL document CHEMBL1671810, “Identification of a novel scaffold for allosteric inhibition of wild type and drug resistant HIV-1 reverse transcriptase by fragment library screening” (J Med Chem, 2011).

Calls of active or inactive are those of the source. The rule behind the calls is not given here.

Experiment [1] deals with Human immunodeficiency virus type 1 BH10. The experiment can be described thus: Displacement of nevirapine from wild type HIV1 BH10 isolate reverse transcriptase expressed in Escherichia coli BL21(DE3) by competition assay.
Experiment [2] addresses T1, Human immunodeficiency virus type 1 reverse transcriptase (Human immunodeficiency virus 1, UniProt Q72547, Y181C). In words: Binding affinity to HIV1 BH10 isolate reverse transcriptase Y181C mutant expressed in Escherichia coli BL21(DE3). Also on record: species or system Human immunodeficiency virus type 1 BH10.
Experiment [3] deals with T2, Human immunodeficiency virus type 1 reverse transcriptase (Human immunodeficiency virus 1, UniProt Q72547, K103N). In words: Binding affinity to HIV1 BH10 isolate reverse transcriptase K103N mutant expressed in Escherichia coli BL21(DE3). Set-up: species or system Human immunodeficiency virus type 1 BH10.
The target in experiment [4] is T3, Human immunodeficiency virus type 1 reverse transcriptase (Human immunodeficiency virus 1, UniProt Q72547, L100I). The experiment can be described thus: Binding affinity to HIV1 BH10 isolate reverse transcriptase L100I mutant expressed in Escherichia coli BL21(DE3). Also on record: species or system Human immunodeficiency virus type 1 BH10.
Experiment [5] can be described thus: Inhibition of wild type HIV1 BH10 isolate reverse transcriptase catalytic activity expressed in Escherichia coli BL21(DE3) by UV-vis spectrophotometry. Also on record: species or system Human immunodeficiency virus type 1 BH10.
A short description of experiment [6]: Binding affinity to wild type HIV1 BH10 isolate reverse transcriptase expressed in Escherichia coli BL21(DE3). Set-up: species or system Human immunodeficiency virus type 1 BH10.
Experiment [7] has as its target T1, Human immunodeficiency virus type 1 reverse transcriptase. The experiment can be described thus: Inhibition of HIV1 BH10 isolate reverse transcriptase Y181C mutant catalytic activity expressed in Escherichia coli BL21(DE3) by UV-vis spectrophotometry. Set-up: species or system Human immunodeficiency virus type 1 BH10.
The target in experiment [8] is T3, Human immunodeficiency virus type 1 reverse transcriptase. The experiment can be described thus: Inhibition of HIV1 BH10 isolate reverse transcriptase L100I mutant catalytic activity expressed in Escherichia coli BL21(DE3) by UV-vis spectrophotometry. Also on record: species or system Human immunodeficiency virus type 1 BH10.
The target in experiment [9] is T2, Human immunodeficiency virus type 1 reverse transcriptase. The experiment can be described thus: Inhibition of HIV1 BH10 isolate reverse transcriptase K103N mutant catalytic activity expressed in Escherichia coli BL21(DE3) by UV-vis spectrophotometry. Set-up: species or system Human immunodeficiency virus type 1 BH10.

On to `Nc1cccc(-c2ccccc2)n1`, for which the outcome in experiment [1] was inactive.
In general, Kd refers to the equilibrium constant for the complex coming apart. In general, IC50 refers to the concentration that inhibits the measured activity by half. Consider `Cc1cc2c(cc1[N+](=O)[O-])OCO2`, for which the Kd in [2] turned out to be 100 µM; in [3] it was 20 µM; in [4] it was 40 µM; in experiment [6] it was 79 µM. The compound further came in with an IC50 in experiment [5] of 150 µM.
The corresponding values for `C=CCNc1scnc1S(=O)(=O)c1ccccc1` are 200 µM, 700 µM, 90 µM, 210 µM and 5 µM.
Regarding `COC(=O)C1=C(C)NC(=S)NC1C` (stereo not given), the Kd in experiment [2] amounted to 700 µM; in [6] it was 380 µM. In addition, in experiment [5], the IC50 was 570 µM.
`CC(C)N1CCC(CCc2c[nH]cn2)CC1` returned a Kd in [6] of 88 µM.
Take `O=C1c2ccccc2CCc2ncccc21`: the dissociation constant (Kd) in [2] is 300 µM; in [3], 50 µM; in [4], 200 µM; in experiment [6], 180 µM. In [5], this compound showed a half-inhibitory concentration (IC50) of 430 µM.
The corresponding values for `C/C(=N\O)c1ccc2c(c1)CCC2` are 50 µM, 50 µM, 200 µM, 300 µM and 39 µM.
In the same order, the values of `O=C(c1ccncc1)c1ccc(Cl)cc1` are 700 µM, 600 µM, 60 µM, greater than 500 µM and 96 µM.
With `CCCCCCCCNC(=O)NCc1ccc(O)c(CO)c1`, the Kd in experiment [6] is 190 µM.
As for `Cc1ccc(O)cc1`, the outcome in experiment [1] was inactive.
With `O=C1CCc2c(Br)cccc21`, the Kd is 40 µM in experiment [2], 20 µM in experiment [3], 40 µM in experiment [4] and 270 µM in experiment [6]. Also, the IC50 in experiment [7] stood at 16 µM; in experiment [5], 4 µM; in experiment [8], 25 µM; in experiment [9], 16 µM.
